Measured values: US7390782B2, “Methods and products related to metabolic interactions in disease” (University of Vermont and State Agricultural College, priority 1998, dated 2008)
Entries after “also recorded” stand apart in the source; their conditions may differ.

Tests used:
[1] = system: L1210/DDP; test: Fas expression by flow cytometry (FITC anti-Fas over isotype); assay type: cell-based; details: for Fas expression: L1210 DDP, in the presence of staurosporine or ADRIAMYCIN
Method: (§1) 3. Fas Expression Increases as a Function of Glucose: We investigated the effect of increasing concentrations of glucoseon cell surface Fas expression. L1210 and L1210/DDP cells were cultured in glucose free RPMI media or in media supplemented with insulin and glucose for 16 hours. Intra- and extracellular Fas expression was determined by labeling the cells with FITC-conjugated anti-Fas antibodies (Pharmingen), or FITC-conjugated isotype control, then subtracting the fluorescence intensity of the isotype staining from Fas staining for each treatment group.
(§2) L1210, upper panels, and L1210/DDP cells, lower panels, were cultured in glucose free RPMI media, filled circles, or in media supplemented with insulin and glucose, squares, for 16 hours. Intra- and extracellular Fas expression was determined by labeling the cells with FITC-conjugated anti-Fas antibodies, or FITC-conjugated isotype control, then subtracting the fluorescence intensity of the isotype staining from Fas staining for each treatment group (FIG. 2). Results are presented as geometric mean fluorescence over background.
(§3) 4. […] We treated L1210 or L1210 DDP cells with the staurosporine, which inhibits protein kinase C and increases mitochondrial membrane potential, or an anti-cancer agent to which both cells are sensitive, ADRIAMYCIN™. Fas expression was increased or induced on both L1210 and L1210 DDP, respectively, in the presence of staurosporine or ADRIAMYCIN™ (FIG. 3). The L1210 DDP changed morphologically and began to divide rapidly, changes which appeared to correspond with a reversion back to the phenotype of the L1210 cells.
(§4) FIG. 23 is a graph depicting Sodium Acetate as a mitochondrial modifying agent. L1210 or L1210DDP cells were cultured in the presence of graded concentrations of sodium acetate in the medium. Cells were stained with Jo2.2, a fluorescein conjugated anti-Fas antibody, or an isotype control. Cell surface staining was measured flow cytometrically. The Percentage of mean fluorescence intensity over the isotype control was plotted.

[2] = system: L1210; test: as above; assay type: cell-based; details: for Fas expression: in the presence of staurosporine or ADRIAMYCIN
Method: as §1, §2, §3, §4

[3] = system: resting B-cells from (NZB×NZW)F1 and (NZB×SWR)F1 mice; test: Apoptosis (DNA fragments) in resting B-cells from autoimmune strains; assay type: cell-based
Method: We stimulated both resting and activated B-cells from (NZB×NZW)F1 and (NZB×SWR)F1 mice with antibodies to class II molecules. Young animals, prior to the development of lupus-like autoantibody and renal disease, were used in these studies. […] Agarose gel electrophoresis of DNA fragments from high density resting B-cells (1.079<r<1.085) was carried out as described in FIG. 2. Normalized areas produced by scanning densitometry on the gels shown above for normal; (NZB×SWR)F1; or (NZB×NZW)F1, animals. […] For normal animals, the mean and standard error of four experiments are shown. For the (NZB×NZW)F1 animals, representative data from one of two experiments is shown and for (NZB×SWR)F1 animals, a single experiment is shown. Because experiments were performed on different days it is impossible to compare background levels of apoptosis between strains; however, it should be noted that there is significant variability in background levels of apoptosis, with those for the (NZB×NZW)F1 animals apparently tending to be higher than for the other strains.

[4] = system: resting B-cells from (NZB×NZW)F1 and (NZB×SWR)F1 mice; test: cAMP in resting B-cells from autoimmune strains; assay type: cell-based
Method: Following the protocols as described in Newell, M K, et al. (Proc Natl Acad Sci, USA, 1993, 90:10459-10463) for resting B lymphocytes from normal mice, we isolated resting B-cells from spleens of (NZB×NZW)F1 and (NZB×SWR)F1 mice by Percoll gradient separation and treated the cells with antibodies to class II molecules, FIG. 12. Experiments utilized mice younger than 3 months of age. […] Resting (1.079<r<1.085) B-cells from normal; […], animals were treated for 10 min at 37° C. with stimuli indicated. Levels of cAMP were determined as described in FIG. 1. Means (and standard errors) from three experiments are shown for normal animals. The means from two experiments are shown for each of the F1 hybrid animals.

[5] = system: L1210/DDP; test: Methotrexate-induced death, flow cytometry and DNA fragment analysis; assay type: cell-based; details: 10^-8 M methotrexate, 24 hours
Method: (§5) Additionally, L1210 and L1210/DDP cells were treated with 10−8 M methotrexate for 24 hours. […] The forward scatter low populations took up ethidium bromide differentially. The L1210 cells took up a moderate amount. […] This latter phenotype—loss in forward scatter and membrane permeability with no “DNA laddering”—is the hall mark of oncosis.

[6] = system: L1210; test: as above; assay type: cell-based; details: 10^-8 M methotrexate, 24 hours
Method: as §5

[7] = system: splenic lymphocytes from C57BL/6, C57BL6.lpr and C57BL.gld; test: Viability of splenic lymphocytes cultured with methotrexate; assay type: cell-based, mice; details: Fas deficient lymphocytes; 5×10^-8 M methotrexate, 18 or 32 hours
Method: 8. Fas Deficient Lymphocytes are also drug resistant to methotrexate: We isolated splenic lymphocytes from aged-matched wild type C57BL/6 mice and C57BL6.lpr and C57BL.gld. Splenocytes from C57BL/6 lpr or gld animals were isolated, red cells depleted, and single cell suspensions prepared. Cells were cultured in the absence or presence of 5×10^−8 M methotrexate for 18 or 32 hours. Cells were harvested and viability was determined by flow cytometric analysis and confirmed with trypan blue exclusion.

[8] = system: B16 melanoma cells; details: increasing concentrations
Method: B16 cells were cultured in the in the presence of different concentrations of sodium acetate and Fas expression was measured.

[9] = system: L1210DDP; details: FasL bearing cells over mock-transfectants
Source text: (§6) Cells cultured with acetate were loaded with 51 Cr and plated onto FasL bearing or mock transfected fibroblast to determine sensitivity to Fas-induced cell death. Results are reported as percent chromium release from cells in the presence of FasL bearing cells over mock-transfectants.

[10] = system: L1210; details: FasL bearing cells over mock-transfectants
Source text: as §6

[11] = system: B16 melanoma cells; details: increasing concentrations; remark: listed apart in the source
Method: FIG. 18 depicts the rates of glucose utilization and oxidation in B16 melanoma cells. Again cells were cultured in the presence of varying concentration of sodium acetate.

[12] = system: PC12 cells; test: Cytofluorometric analysis of Fas, B7.1, B7.2 cell surface expression; assay type: cell-based, Rat; details: 50 ng/ml
Method: (§7) Cell Culture: Rat pheochromocytoma cell lines, including PC12, Trk and v-Crk cells were a kind gift from Dr. Raymond Birge. They were maintained in complete RPMI 1640 (GIBCO) supplemented with 7% heat inactivated fetal calf serum and 3% heat inactivated horse serum at 37° C. in a humidified incubator with 5% CO2. The PC12 transfectants were generated as described previously (Glassman et al., 1997, Hempstead et al., 1994). Cells were plated in 6 well culture plates at a concentration ranging from 2-8×10^6 cells/well, according to the cell type's growth kinetics, and 5 ml complete medium. NGF-7S from mouse submaxillary glands (Sigma Chemical Co.) or EGF, kindly provided by Dr. Raymond Birge, was added at a concentration of 50 ng/ml culture medium and the cells were incubated for 24 or 48 hours.
(§8) Cytofluorometric Analysis: Cells were harvested after a 10 minute incubation period on ice in order to diminish their adherence to the plastic culture flask. They were spun at 1210 rpm, for 7 minutes, resuspended in medium and counted after trypan blue staining. Equal numbers of cells were placed in 12×75 mm flow tubes (range: 0.1-1×10^6 cells/tube), washed in PBS and 5% FBS and stained at 4° C. The following stains were used: a) fluorescein isothiocyanate (FITC) hamster IgG isotype standard, b) FITC anti-mouse Fas, c) FITC anti-mouse CD80 (B7.1), d) phycoerythrin (PE) mouse IgG2b K isotype standard and e) PE anti-mouse CD86 (B7.2). All antibodies were obtained from Pharmingen.
(§9) After incubation on ice for 20 minutes, cells were washed, resuspended in PBS and 5% FCS and analyzed by flow cytometry (Becton Dickinson). Histogram plots were derived from dot plots gated on the live cell population according to the forward versus side scatter ratio (Cell Quest Program). The absolute Fas, B7.1 and B7.2 values presented on the graphs were obtained by subtracting the […]. Values were considered subjectively positive (+) if the difference was statistically significant (p<0.001) according to the applied Kilmogorov-Smirnov statistical analysis.

[13] = system: v-Crk cells; test: as above; assay type: cell-based, Rat
Method: as §7, §8, §9

[14] = system: TrkA cells; test: as above; assay type: cell-based, Rat; details: Trk cells, 50 ng/ml
Method: as §7, §8, §9

For COc1cccc2c1C(=O)c1c(O)c3c(c(O)c1C2=O)C[C@@](O)(C(=O)CO)C[C@@H]3O[C@H]1C[C@H](N)[C@H](O)[C@H](C)O1 [ADRIAMYCIN™], the Fas expression [1] was “induced” and the Fas expression [2] was “increased”.

With CC(C)NCC(O)c1ccc(O)c(O)c1 (stereo not shown) [isoproterenol] the apoptosis ([3]; (NZB×NZW)F1 B-cells) was “minimal evidence of apoptosis”, the apoptosis ([3]; B-cells from (NZB×SWR)F1 mice) was “intermediate level” and the “intracellular cAMP response” value [4] was “normal”.

For CN(Cc1cnc2nc(N)nc(N)c2n1)c1ccc(C(=O)N[C@@H](CCC(=O)O)C(=O)O)cc1 [methotrexate], the “DNA fragments (laddering)” value [5] was “did not”, the “DNA fragments (laddering)” value [6] was “produced a ladder of nucleosome sized fragments indicative of apoptosis” and the “susceptibility to methotrexate-induced apoptosis” value [7] was “decreased susceptibility”.

With CC(=O)[O-].[Na+] [sodium acetate] the “levels of cell surface Fas” value ([8]; non-permeabilized B16 cells) was “increased”, the “levels of intracellular Fas” value ([8]; permeabilized B16 cells) was “declined” and the “susceptibility to Fas-dependent cell death (percent chromium release)” value [9] was “results in susceptibility to Fas-dependent cell death”. The “susceptibility to Fas-dependent cell death (percent chromium release)” value [10] was “results in susceptibility to Fas-dependent cell death”, the glucose oxidation [11] was “decreased” and the glucose utilization [11] was “decreased”. The “cell surface Fas expression” value ([1]; L1210DDP, graded concentrations of sodium acetate in the medium) was “increases cell surface Fas expression” and the “cell surface Fas expression” value ([2]; graded concentrations of sodium acetate in the medium) was “increases cell surface Fas expression”.

With CN[C@@H]1C[C@H]2O[C@@](C)([C@@H]1OC)n1c3ccccc3c3c4c(c5c6ccccc6n2c5c31)C(=O)NC4 [staurosporine] the “Fas expression and susceptibility to drug-induced apoptosis” value ([1]; L1210 DDP cells treated with staurosporin) was “restores Fas expression and susceptibility to drug-induced apoptosis”, the Fas expression [1] was “induced” and the Fas expression [2] was “increased”.

In the case of “EGF: EGF, kindly provided by Dr. Raymond Birge”, the “B7.1 cell surface expression” value ([12]; stimulation 24 hours) is reported as “significantly lowers”, the “Fas cell surface expression” value ([12]; stimulation 24 hours) is reported as “downregulates Fas expression” and the “B7.1 cell surface expression” value ([12]; stimulation 48 hours) is reported as “reestablishes the basal values”. The “B7.2 cell surface expression” value ([12]; stimulation 48 hours) was “up-regulates B7.2 expression”, the “Fas cell surface expression” value ([12]; stimulation 48 hours) was “totally abrogates Fas expression” and the “B7.1 cell surface expression” value ([13]; 50 ng/ml, 24 and 48 hours of culture) was “significantly increases B7.1 expression”. The “Fas cell surface expression” value ([13]; 50 ng/ml, stimulation 24 hours) was “significantly up-regulates Fas expression; also recorded: increases three-fold”, the “B7.2 cell surface expression” value ([13]; 50 ng/ml, stimulation 48 hours) was “significant induction” and the “Fas cell surface expression” value ([13]; 50 ng/ml, stimulation 48 hours) was “down-regulated and abrogated”. For the same molecule, the “B7.2 cell surface expression” value ([13]; after withdrawal) was “again undetectable”, the “B7.1 cell surface expression” value ([14]; stimulation 24 hours) was “lowered” and the “Fas cell surface expression” value ([14]; stimulation 24 hours) was “downregulates Fas expression”. For the same molecule, the “B7.1 cell surface expression” value ([14]; stimulation 48 hours) was “reestablished”, the “B7.2 cell surface expression” value ([14]; stimulation 48 hours) was “most significant” and the “Fas cell surface expression” value ([14]; stimulation 48 hours) was “totally abrogates Fas expression”.
